Test results from patent publication US10912294B2, “Composition for use as pesticide, fertilizer, or both, and uses thereof” (priority 2015, dated 2021).

Experiments:
[1] = system: Staphylococcus aureus (ATCC 6538); test: Minimum concentration for total bactericidal activity, AOAC method 955.15 (Phenol Coefficient Method); type: cell-based; conditions: total antimicrobial (bactericidal) activity; incorporated into composition F; contact time 10 minutes
[2] = system: Staphylococcus aureus ATCC6538; conditions: R. J. W. Lambert et al. 2001; cited from earlier work
[3] = system: Candida albicans ATCC10231; conditions: E. pinto et al. 2006; cited from earlier work
[4] = system: Epidermophyton floccosum FF9; conditions: E. pinto et al. 2006; cited from earlier work
[5] = system: Treponema phagedaenis-like; conditions: D. Döpfer et al. 2013; cited from earlier work
[6] = system: Pseudomonas aeruginosa ATCC2730; conditions: R. J. W. Lambert et al. 2001; cited from earlier work
Microsporum gypseum FF3 = conditions: E. pinto et al. 2006; cited from earlier work
[7] = system: Aspergillus fumigatus ATCC46645; conditions: E. pinto et al. 2006; cited from earlier work
[8] = system: Trichophyton mentagrophytes FF7; conditions: E. pinto et al. 2006; cited from earlier work
Microsporum canis FF1 = conditions: E. pinto et al. 2006; cited from earlier work
[9] = system: Staphylococcus epidermidis ATCC12228; conditions: A. Nostro et al. 2004; cited from earlier work
[10] = system: Staphylococcus aureus ATCC43300; conditions: A. Nostro et al. 2004; cited from earlier work
Trichophyton rubrum FF5 = conditions: E. pinto et al. 2006; cited from earlier work
[11] = system: Candida tropicalis ATCC13803; conditions: E. pinto et al. 2006; cited from earlier work
[12] = system: Aspergillus niger ATCC16404; conditions: E. pinto et al. 2006; cited from earlier work
[13] = system: E. amylovora 435 (streptomycin-sensitive); test: Sensitivity test on King B agar media; type: cell-based, Erwinia amylovora; conditions: streptomycin 100, 250 and 500 ppm; composition 12 at 1, 2.5 and 5%; up to 72 hours at 26° C.
[14] = system: E. amylovora 153sm5 (streptomycin-resistant); type: cell-based, Erwinia amylovora; conditions: streptomycin 100, 250 and 500 ppm; composition 12 at 1, 2.5 and 5%; up to 72 hours at 26° C.
E. coli ATCC 25922 = test: Sensitivity test on King B agar media; type: cell-based; conditions: streptomycin 100, 250 and 500 ppm; composition 12 at 1, 2.5 and 5%; up to 72 hours at 26° C.
[15] = system: E. amylovora 433 (streptomycin-sensitive); test: Sensitivity test on King B agar media; type: cell-based, Erwinia amylovora; conditions: streptomycin 100, 250 and 500 ppm; composition 12 at 1, 2.5 and 5%; up to 72 hours at 26° C.
[16] = in vivo; cited from earlier work

Question: With `CC(C)=CCCC(C)=CC=O` [Citral] as the molecule, how does the “Minimal Concentration” value [1] read?
Answer: Its value is greater than 1% v/v %.

Question: For `Cc1ccc(C(C)C)c(O)c1` [Thymol], which MIC [2] is on record?
Answer: Its MIC is 0.014 v/v %.

Question: What about the MIC [3] of the same molecule?
Answer: Its MIC is 0.016 v/v %.

Question: What about the MIC [4] of the same molecule?
Answer: The MIC was 0.016 v/v %.

Question: What about the MIC [5] of the same molecule?
Answer: The MIC was 0.0006 v/v %.

Question: What about the MIC [6] of the same molecule?
Answer: The MIC was 0.0385 v/v %.

Question: What about the MIC (Microsporum gypseum FF3) of the same molecule?
Answer: The MIC was 0.016 v/v %.

Question: And the “Minimal Concentration” value [1]?
Answer: Its value is 0.07 v/v %.

Question: What about the MIC [7] of the same molecule?
Answer: The MIC was 0.016 v/v %.

Question: And the MIC [8]?
Answer: Its MIC is 0.016 v/v %.

Question: What about the MIC (Microsporum canis FF1) of the same molecule?
Answer: The MIC was 0.008 v/v %.

Question: What about the MIC [9] of the same molecule?
Answer: The MIC was 0.06 v/v %.

Question: And the MIC [10]?
Answer: The MIC was 0.06 v/v %.

Question: What about the MIC (Trichophyton rubrum FF5) of the same molecule?
Answer: The MIC was 0.016 v/v %.

Question: And the MIC [11]?
Answer: Its MIC is 0.016 v/v %.

Question: What about the MIC [12] of the same molecule?
Answer: The MIC was 0.016 v/v %.

Question: What does the source list for `[H]/N=C(/N)N[C@H]1[C@H](O)[C@@H](O)[C@H](O[C@@H]2O[C@@H](C)[C@](O)(C=O)[C@H]2O[C@@H]2O[C@@H](CO)[C@H](O)[C@@H](O)[C@@H]2NC)[C@@H](N/C(N)=N\[H])[C@@H]1O` [streptomycin]?
Answer: Bacterial growth on King B agar media containing the agent [13]: did not grow; Bacterial growth on King B agar media containing the agent [14]: not inhibited; Bacterial growth on King B agar media containing the agent (E. coli ATCC 25922): did not grow; Bacterial growth on King B agar media containing the agent [15]: did not grow

Question: Which “Minimal Concentration” value [1] does the source give for `C=CCc1ccc(O)c(OC)c1` [Eugenol] here?
Answer: Its value is 0.4 v/v %.

Question: For `CCCCCCCCCCCCOS(=O)(=O)[O-].[Na+]` [Sodium Lauryl Sulfate], which “LD50 Oral-rat” value [16] is on record?
Answer: Its value is 1288 mg/kg.

Question: With `COCC(C)O` (stereo not shown) [Glycol Ether PM] as the molecule, how does the “LD50 Oral-rat” value [16] read?
Answer: The value was 5 210 mg/kg.

Question: Which results are given for `Cc1ccc(C(C)C)cc1O` [Carvacrol]?
Answer: MIC [2]: 0.0175 v/v %; MIC [3]: 0.016 v/v %; MIC [4]: 0.008 v/v %; MIC [6]: 0.045 v/v %; MIC (Microsporum gypseum FF3): 0.004 v/v %; Minimal Concentration [1]: 0.07 v/v %; MIC [7]: 0.016 v/v %; MIC [8]: 0.004 v/v %; MIC (Microsporum canis FF1): 0.004 v/v %; MIC [9]: 0.03 v/v %; MIC [10]: 0.015 v/v %; MIC (Trichophyton rubrum FF5): 0.008 v/v %; MIC [11]: 0.016 v/v %; MIC [12]: 0.016 v/v %
